{
  "source": "patent US20230097883A1",
  "about": "“ERGOTHIONEINE PET COMPOUNDS AND METHODS OF USE THEREOF” (VANDERBILT UNIVERSITY, priority 2021, published 2023)",
  "test_system": "oxidative stress",
  "experiment": "PET imaging of LPS-induced neuroinflammation with [11C]ERGO radioligand, with Tempol blocking",
  "assay_type": "in vivo, mouse",
  "conditions": "LPS-treated WT mice, Tempol 0.2 mg/mL prior to [11C]ERGO",
  "protocol": "The mice were injected with ˜20 MBq/0.1 ml 11C-ERGO via the tail vein and returned to their cages for 10 min. Then they were anesthetized with 2% isofluorane and imaged in an Inveon microPET (Siemens Pre-clinical, Knoxville, Tenn., USA) for 30 min in static mode followed by a CT scan using a NanoSPECT/CT (Mediso, Wash. D.C.) at an x-ray beam intensity of […] and x-ray voltage of 45 kVp. PET images were reconstructed using the iterative MAP reconstruction algorithm with 18 iterations and a beta smoothing value of 0.001 into 128×128×95 slices with a voxel size of 0.388 mm×0.388 mm×0.796 mm. The CT images were reconstructed into 170×170×126 slices at a voxel size of 0.4×0.4×0.4 mm^3. The PET and CT images were co-registered using the imaging tool AMIDE.\nThe mouse model of LPS-induced neuroinflammation was developed based on past reports. The LPS derived from Escherichia coli […] (Sigma Aldrich, St Louis, Mo.) was formulated in sterilized dd. water and given a high dose of LPS formulation (5 mg/Kg) through intraperitoneal injection 24 h before PET imaging. This high dose would result in approximately 12-13% body weight loss over the course of 24 h. After PET imaging, animals were sacrificed, and the brains were collected for histology analysis.\nThe reported LPS mouse model of neuroinflammation in the past was reproduced for the validation of the specificity of the probe. […]",
  "data": [
    {"smiles": "CC1(C)CC(O)CC(C)(C)N1[O]", "note": "[Tempol, 4-hydroxy-2,2,6,6-tetramethyl piperidinoxyl, reference compound]", "values": [
      {"measurement": "[11C]ERGO PET signal in brain of LPS-treated mice after co-injection with excess Tempol (blocking)", "value": "significant reduction of the PET signal"}
    ]}
  ]
}
